Test results reported in paper PMC8288134, “Synthesis, potential antitumor activity, cell cycle analysis, and multitarget mechanisms of novel hydrazones incorporating a 4-methylsulfonylbenzene scaffold: a molecular docking study” (Journal of Enzyme Inhibition and Medicinal Chemistry, 2021).
Where two headings read alike, the source gives them in different places.

Assays:
HT29 [1] = test system: HT29; set-up: method as in https://dtp.cancer.gov/dtpstandard/dwindex/index.jsp; conditions: reference drugs, ref https://dtp.cancer.gov/dtpstandard/dwindex/index.jsp; cited from earlier work
HOP-62 = test system: HOP-62; set-up: method as in https://dtp.cancer.gov/dtpstandard/dwindex/index.jsp; conditions: reference drugs, ref https://dtp.cancer.gov/dtpstandard/dwindex/index.jsp; cited from earlier work
NCI-H522 = test system: NCI-H522; set-up: method as in https://dtp.cancer.gov/dtpstandard/dwindex/index.jsp; conditions: reference drugs, ref https://dtp.cancer.gov/dtpstandard/dwindex/index.jsp; cited from earlier work
SNB-75 = test system: SNB-75; set-up: method as in https://dtp.cancer.gov/dtpstandard/dwindex/index.jsp; conditions: reference drugs, ref https://dtp.cancer.gov/dtpstandard/dwindex/index.jsp; cited from earlier work
ACHN = test system: ACHN; set-up: method as in https://dtp.cancer.gov/dtpstandard/dwindex/index.jsp; conditions: reference drugs, ref https://dtp.cancer.gov/dtpstandard/dwindex/index.jsp; cited from earlier work
HCC-2998 = test system: HCC-2998; set-up: method as in https://dtp.cancer.gov/dtpstandard/dwindex/index.jsp; conditions: reference drugs, ref https://dtp.cancer.gov/dtpstandard/dwindex/index.jsp; cited from earlier work
NCI/ADR-RES = test system: NCI/ADR-RES; set-up: method as in https://dtp.cancer.gov/dtpstandard/dwindex/index.jsp; conditions: reference drugs, ref https://dtp.cancer.gov/dtpstandard/dwindex/index.jsp; cited from earlier work
SK-MEL-28 = test system: SK-MEL-28; set-up: method as in https://dtp.cancer.gov/dtpstandard/dwindex/index.jsp; conditions: reference drugs, ref https://dtp.cancer.gov/dtpstandard/dwindex/index.jsp; cited from earlier work
RXF 393 = test system: RXF 393; set-up: method as in https://dtp.cancer.gov/dtpstandard/dwindex/index.jsp; conditions: reference drugs, ref https://dtp.cancer.gov/dtpstandard/dwindex/index.jsp; cited from earlier work
NCI-H226 = test system: NCI-H226; set-up: method as in https://dtp.cancer.gov/dtpstandard/dwindex/index.jsp; conditions: reference drugs, ref https://dtp.cancer.gov/dtpstandard/dwindex/index.jsp; cited from earlier work
DU-145 = test system: DU-145; set-up: method as in https://dtp.cancer.gov/dtpstandard/dwindex/index.jsp; conditions: reference drugs, ref https://dtp.cancer.gov/dtpstandard/dwindex/index.jsp; cited from earlier work
BT-549 = test system: BT-549; set-up: method as in https://dtp.cancer.gov/dtpstandard/dwindex/index.jsp; conditions: reference drugs, ref https://dtp.cancer.gov/dtpstandard/dwindex/index.jsp; cited from earlier work
SF-268 = test: NCI antitumor screen (SRB); type: cell-based; conditions: Homo sapiens; for inhibition at 10 µM: one dose 10 µM, read-out: Growth inhibition percentage (GI%)
A498 = test: NCI antitumor screen (SRB); type: cell-based; conditions: Homo sapiens; for inhibition at 10 µM: one dose 10 µM, read-out: Growth inhibition percentage (GI%)
PRMI-8226 = test: NCI antitumor screen (SRB); type: cell-based; conditions: Homo sapiens; for inhibition at 10 µM: one dose 10 µM, read-out: Growth inhibition percentage (GI%)
NCI-H23 = test: NCI antitumor screen (SRB); type: cell-based; conditions: Homo sapiens; for inhibition at 10 µM: one dose 10 µM, read-out: Growth inhibition percentage (GI%)
HL-60(TB) = test: cells; type: cell-based, human; conditions: for inhibition at 10 µM: HL-60, HL-60(TB), read-out: Growth inhibition percentage (GI%)
OVCAR-3 = test: NCI antitumor screen (SRB); type: cell-based; conditions: Homo sapiens; for inhibition at 10 µM: one dose 10 µM, read-out: Growth inhibition percentage (GI%)
SF-539 = test: NCI antitumor screen (SRB); type: cell-based; conditions: Homo sapiens; for inhibition at 10 µM: one dose 10 µM, read-out: Growth inhibition percentage (GI%)
HT29 [2] = test: NCI antitumor screen (SRB); type: cell-based; conditions: Homo sapiens; for inhibition at 10 µM: HT-29, one dose 10 µM, read-out: Growth inhibition percentage (GI%)
EGFR = EGFR (Homo sapiens, UniProt P00533); test: biochemical; conditions: read-out: IC50 EGFR Inhibition
From the text: (§1) In vitro luminescent EGFR tyrosine kinase assay using Kinase-Glo® MAX as a detection reagent, and In vitro HER2 tyrosine kinase assay using DP‐Glo™ reagent that measures ADP formed from a kinase reaction, this luminescent signal positively correlates with ADP amount and kinase activity. […]
(§2) 2.1.5. EGFR and Her2 assays
(§3) In vitro luminescent EGFR tyrosine kinase assay, using Kinase-Glo® MAX as a detection reagent, and In vitro HER2 tyrosine kinase assay, using DP‐Glo™ reagent that measures the adenosine diphosphate (ADP) formed from a kinase reaction, were performed; this luminescent signal positively correlates with ADP amount and kinase activity. In 17 μl of distilled water, 6 μl of Kinase assay buffer and 1 μl ATP and 1 μl PTK substrate were mixed (master mixture). In every well, mix 20 μl of the master mixture and 5 μl of Inhibitor solution (Test Inhibitor) for positive control, and use 5 μl of the same solution without inhibitor (Inhibitor buffer) as the blank solution; add 20 μl of diluted EGFR or Her2 enzyme and incubate at 30°C for 40 min. Add 50 μl of Kinase-Glo Max reagent to each well, cover the plate with aluminum foil and incubate the plate at room temperature for 15 min. Afterward, measure luminescence using the microplate reader. “Blank” value is subtracted from all readings. […]

HER2 = HER2 (Homo sapiens, UniProt P04626); test: biochemical; conditions: read-out: IC50 HER2 Inhibition
From the text: as §1, §2, §3

COX-2 = molecular target: T1, COX-2 (Ovis aries, UniProt P79208); test: biochemical; conditions: mean of three determinations; read-out: IC50 COX-2 Inhibition
T1 construct: purchased Cayman Chemical 560101
T1 sequence (P79208 17-603): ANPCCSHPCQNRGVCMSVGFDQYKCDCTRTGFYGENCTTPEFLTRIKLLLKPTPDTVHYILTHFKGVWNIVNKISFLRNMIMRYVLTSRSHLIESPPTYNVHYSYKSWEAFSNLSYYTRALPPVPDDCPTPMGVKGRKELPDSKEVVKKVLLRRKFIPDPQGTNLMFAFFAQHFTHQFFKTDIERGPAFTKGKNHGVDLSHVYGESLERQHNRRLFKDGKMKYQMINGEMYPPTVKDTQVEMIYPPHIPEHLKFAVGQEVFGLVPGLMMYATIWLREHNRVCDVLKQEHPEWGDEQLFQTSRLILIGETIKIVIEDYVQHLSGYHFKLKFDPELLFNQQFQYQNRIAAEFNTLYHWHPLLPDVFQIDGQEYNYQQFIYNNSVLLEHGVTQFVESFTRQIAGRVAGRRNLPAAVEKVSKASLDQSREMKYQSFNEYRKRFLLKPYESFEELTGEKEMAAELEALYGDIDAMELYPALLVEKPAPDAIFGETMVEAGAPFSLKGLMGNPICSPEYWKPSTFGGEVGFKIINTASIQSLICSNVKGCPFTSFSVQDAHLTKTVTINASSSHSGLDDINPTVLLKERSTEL
Method: had been previously attached to the well. The plate was washed to remove any unbound reagents, and then Ellman’s reagent, containing the substrate of acetylcholine esterase, was added to the well. This enzymatic reaction produced a distinct yellow color that was absorbed in 410 nm. The intensity of the color, determined spectrophotometrically, was proportional to the amount of PG tracer bound to the well, which was inversely proportional to PGs present in the well during the incubation: Absorbance ∝ [Bound PG Tracer] a1/PGs. Percent inhibition was calculated by comparing the treated compound to various control incubations. The test compound […]
inhibition response curve (duplicate determinations). […]

[3] = five concentrations 0.01-100 µM

HER2, sequence (P04626 23-1255): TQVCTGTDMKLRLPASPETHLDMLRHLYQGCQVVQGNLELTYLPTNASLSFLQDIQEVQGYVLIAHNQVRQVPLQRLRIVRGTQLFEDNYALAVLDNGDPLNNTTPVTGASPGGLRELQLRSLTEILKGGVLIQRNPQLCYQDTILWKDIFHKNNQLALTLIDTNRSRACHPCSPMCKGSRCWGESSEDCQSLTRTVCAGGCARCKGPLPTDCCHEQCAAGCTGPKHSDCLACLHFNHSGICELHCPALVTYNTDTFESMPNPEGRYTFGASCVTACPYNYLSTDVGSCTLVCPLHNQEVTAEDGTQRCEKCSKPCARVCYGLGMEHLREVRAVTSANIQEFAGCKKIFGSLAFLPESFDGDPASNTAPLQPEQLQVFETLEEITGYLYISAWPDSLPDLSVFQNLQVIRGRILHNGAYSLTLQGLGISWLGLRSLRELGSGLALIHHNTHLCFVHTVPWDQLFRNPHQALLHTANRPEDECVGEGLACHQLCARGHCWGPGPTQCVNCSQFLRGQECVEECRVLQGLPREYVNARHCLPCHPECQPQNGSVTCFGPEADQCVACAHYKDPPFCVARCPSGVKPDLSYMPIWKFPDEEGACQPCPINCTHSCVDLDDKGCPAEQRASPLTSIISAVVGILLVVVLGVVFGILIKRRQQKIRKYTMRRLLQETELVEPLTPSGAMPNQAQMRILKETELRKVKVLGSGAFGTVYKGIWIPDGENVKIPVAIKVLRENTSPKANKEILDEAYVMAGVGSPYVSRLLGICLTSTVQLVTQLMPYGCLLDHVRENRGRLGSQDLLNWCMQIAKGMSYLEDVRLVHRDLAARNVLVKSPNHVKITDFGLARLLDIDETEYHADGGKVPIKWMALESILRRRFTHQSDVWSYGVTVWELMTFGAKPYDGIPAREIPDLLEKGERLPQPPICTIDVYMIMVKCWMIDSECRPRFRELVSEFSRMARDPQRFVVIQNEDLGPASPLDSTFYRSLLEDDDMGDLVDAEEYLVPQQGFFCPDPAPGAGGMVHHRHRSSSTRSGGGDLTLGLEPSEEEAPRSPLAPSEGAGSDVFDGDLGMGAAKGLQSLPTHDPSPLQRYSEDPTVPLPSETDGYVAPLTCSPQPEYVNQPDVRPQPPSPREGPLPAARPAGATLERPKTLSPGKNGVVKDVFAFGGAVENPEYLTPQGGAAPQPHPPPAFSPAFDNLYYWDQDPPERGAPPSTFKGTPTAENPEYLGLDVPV
EGFR, sequence (P00533 25-1210): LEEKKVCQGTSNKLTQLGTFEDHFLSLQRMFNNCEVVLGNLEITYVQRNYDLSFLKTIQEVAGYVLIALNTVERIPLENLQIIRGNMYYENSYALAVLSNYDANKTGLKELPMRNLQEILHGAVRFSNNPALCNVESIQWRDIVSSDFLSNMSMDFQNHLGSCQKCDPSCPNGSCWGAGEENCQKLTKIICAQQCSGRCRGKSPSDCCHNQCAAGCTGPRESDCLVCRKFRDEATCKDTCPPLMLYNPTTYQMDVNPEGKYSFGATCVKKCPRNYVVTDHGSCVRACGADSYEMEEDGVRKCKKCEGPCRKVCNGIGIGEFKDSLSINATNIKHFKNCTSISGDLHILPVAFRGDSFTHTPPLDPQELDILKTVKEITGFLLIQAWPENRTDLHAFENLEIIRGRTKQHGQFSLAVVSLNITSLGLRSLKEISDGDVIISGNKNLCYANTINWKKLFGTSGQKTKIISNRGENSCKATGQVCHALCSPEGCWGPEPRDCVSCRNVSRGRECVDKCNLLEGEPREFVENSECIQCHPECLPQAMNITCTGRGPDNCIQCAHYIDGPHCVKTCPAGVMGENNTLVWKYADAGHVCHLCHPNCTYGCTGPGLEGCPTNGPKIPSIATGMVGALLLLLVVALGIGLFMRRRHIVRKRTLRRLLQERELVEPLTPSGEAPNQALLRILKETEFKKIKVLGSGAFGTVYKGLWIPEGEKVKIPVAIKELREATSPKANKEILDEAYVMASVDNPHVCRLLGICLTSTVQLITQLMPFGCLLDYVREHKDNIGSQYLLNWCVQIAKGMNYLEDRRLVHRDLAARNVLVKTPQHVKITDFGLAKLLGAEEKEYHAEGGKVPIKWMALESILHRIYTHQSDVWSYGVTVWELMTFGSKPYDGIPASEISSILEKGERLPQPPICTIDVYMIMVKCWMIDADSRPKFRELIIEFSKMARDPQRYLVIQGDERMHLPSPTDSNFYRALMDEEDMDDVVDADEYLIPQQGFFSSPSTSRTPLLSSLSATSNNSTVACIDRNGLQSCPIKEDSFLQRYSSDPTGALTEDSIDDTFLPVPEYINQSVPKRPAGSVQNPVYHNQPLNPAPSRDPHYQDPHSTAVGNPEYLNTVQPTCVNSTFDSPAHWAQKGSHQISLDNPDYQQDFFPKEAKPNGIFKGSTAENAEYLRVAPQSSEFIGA

SMILES | GI50 (HT29 [1]) | GI50 (HOP-62) | GI50 (NCI-H522) | GI50 (SNB-75) | GI50 (ACHN) | GI50 (HCC-2998) | GI50 (NCI/ADR-RES) | GI50 (SK-MEL-28) | GI50 (RXF 393) | GI50 (NCI-H226) | GI50 (DU-145) | GI50 (BT-549) | inhibition at 10 µM (SF-268) | inhibition at 10 µM (A498) | inhibition at 10 µM (PRMI-8226) | inhibition at 10 µM (NCI-H23) | inhibition at 10 µM (HL-60(TB); Homo sapiens, one dose 10 µM) | inhibition at 10 µM (OVCAR-3) | inhibition at 10 µM (SF-539) | inhibition at 10 µM (HT29 [2]) | further results
CS(=O)(=O)c1ccc(C(=O)Nc2ccc(Cl)c(-c3ccccn3)c2)c(Cl)c1 [Vismodegib, vismodegib] | 25.1 µM | 79.4 µM | 25.1 µM | 25.1 µM | 39.8 µM | 39.8 µM | 31.6 µM | 39.8 µM | 25.1 µM | 50.1 µM | 50.1 µM |  |  |  |  |  |  |  |  |  | 
CNC(=O)c1cc(Oc2ccc(NC(=O)Nc3ccc(Cl)c(C(F)(F)F)c3)cc2)ccn1 [Sorafenib, sorafenib] | 1.99 µM | 1.99 µM | 1.99 µM | 3.16 µM | 2.51 µM | 3.16 µM | 2.51 µM | 2.51 µM | 2.51 µM | 1.99 µM | 3.16 µM | 3.16 µM |  |  |  |  |  |  |  |  | 
O=c1[nH]cc(F)c(=O)[nH]1 [Compound 5-Fu, 5-fluorouracil, reference compound] |  |  |  |  |  |  |  |  |  |  |  |  | 41% | > 100% | 58.6% | 61% | 52.1% | 52.6% | > 100% | 72.9% | 
COc1cc2ncnc(Nc3ccc(F)c(Cl)c3)c2cc1OCCCN1CCOCC1 [Gefitinib, gefitinib] | 3.98 µM | 3.16 µM | 1 µM |  | 0.158 µM | 2.51 µM | 1.26 µM | 3.16 µM | 3.16 µM | 3.98 µM | 1.58 µM | 3.16 µM |  |  |  |  |  |  |  |  | 
Cc1ccc(-c2cc(C(F)(F)F)nn2-c2ccc(S(N)(=O)=O)cc2)cc1 [Celecoxib, celecoxib] | 15.8 µM | 63.1 µM |  | 15.8 µM | 15.8 µM | 15.8 µM | 15.8 µM | 15.8 µM | 15.8 µM |  | 15.8 µM | 19.9 µM |  |  |  |  |  |  |  |  | 
CS(=O)(=O)c1ccc(C(=O)N/N=C/c2ccccc2O)cc1 [Compound 16] |  |  |  |  |  |  |  |  |  |  |  |  | 61.6% | 24.8% | 51.3% | 45.2% | 93.7% | 77.2% | 44.7% | 56.4% | IC50 (EGFR): 0.2 ± 0.07 µM; IC50 (HER2): 0.13 ± 0.04 µM; IC50 (COX-2): 82.4 ± 3.61 µM
CCN(CC)c1ccc(/C=N/NC(=O)c2ccc(S(C)(=O)=O)cc2)c(O)c1 [Compound 20] |  |  |  |  |  |  |  |  |  |  |  |  | 78.2% | 54.7% | 79% | 67.2% | 100% | 66.6% | 96% | 78.2% | GI50 (SF-268; [3]): 0.0789 µM; GI50 (A498; [3]): 9.81 µM; GI50 (PRMI-8226; [3]): 0.297 µM; GI50 (NCI-H23; [3]): 0.446 µM; Growth inhibition percentage (GI%) (HL-60(TB); HL-60(TB), one dose 10 µM): >100%; GI50 (HL-60(TB); Homo sapiens, HL-60(TB), five concentrations 0.01-100 µM): 0.164 µM; GI50 (OVCAR-3; [3]): 0.125 µM; IC50 (EGFR): 0.19 ± 0.01 µM; IC50 (HER2): 0.07 ± 0.02 µM; GI50 (SF-539; [3]): 0.244 µM; IC50 (COX-2): 6.94 ± 0.41 µM; GI50 (HT29 [2]; HT-29, five concentrations 0.01-100 µM): 0.297 µM
Cc1ccc(C=NNC(=O)c2ccc(S(C)(=O)=O)cc2)cc1 [Compound 9, N'-(4-Methylbenzylidene)-4-(methylsulfonyl)benzohydrazide] |  |  |  |  |  |  |  |  |  |  |  |  | < 10% | 17.9% | < 10% | < 10% | 24.3% | < 10% | < 10% | 17.7% | IC50 (EGFR): 0.77 ± 0.03 µM; IC50 (HER2): 0.41 ± 0.01 µM; IC50 (COX-2): 2.97 ± 0.07 µM
CS(=O)(=O)c1ccc(C(=O)NN=Cc2cccc3ccccc23)cc1 [Compound 6, 4-(Methylsulfonyl)-N'-(naphthalen-1-ylmethylene)benzohydrazide] |  |  |  |  |  |  |  |  |  |  |  |  | 14.3% | 30.9% | 12.3% | 10.4% | 62.5% | 32.2% | 10.7% | 50.5% | IC50 (EGFR): 0.26 ± 0.09 µM; IC50 (HER2): 0.35 ± 0.01 µM; IC50 (COX-2): 36.3 ± 2.55 µM
C#Cc1cccc(Nc2ncnc3cc(OCCOC)c(OCCOC)cc23)c1 [Erlotinib, erlotinib] | 63.1 µM | 15.8 µM | 1 µM | 12.6 µM | 0.199 µM | 79.4 µM | 7.94 µM | 50.1 µM | 3.98 µM | 39.8 µM | 1.99 µM | 31.6 µM |  |  |  |  |  |  |  |  | 
